The values that follow come from PMC7496960, “Nonanal modulates oviposition preference in female Helicoverpa assulta (Lepidoptera: Noctuidae) via the activation of peripheral neurons” (Pest Management Science, 2020).

This assay deals with T1, HassOR67/Orco (HassOR67/HassOrco; OR67).
T1 construct: full-length ORF from antennal cDNA in pT7Ts; cRNA co-injected with Orco cRNA into Xenopus laevis oocytes; with Odorant receptor coreceptor
Description: two-electrode voltage clamp, Xenopus oocytes. Type of assay: cell-based, Helicoverpa assulta. As to conditions: co-expressed with Orco; agonist; holding potential −80 mV; 1 × 10^−7 to 1 × 10^−3 M. A general note: Two-electrode voltage clamp holds a large cell at a set potential and records current.

As usually defined, the EC50 is the midpoint of the concentration-response curve. A high value points to lower potency in that assay. `CCCCCCCCC=O` [nonanal] displayed an EC50 of 8.49 µM. In other words, the single-digit micromolar range.
